Laboratory results: patent publication US4146622A, “Aziridinyl quinone anti-transplanted tumor agents” (priority 1977, dated 1979)
Values after ≈ are worked out from the molar mass of the structure shown. Values joined by “and” are separate entries in the source; they are usually repeats but may differ in a detail not shown here. Identical values can stand only once. “Also recorded” adds a separate entry of the source. Like-named read-outs stand apart in the source and are kept apart here.

Experiments:
lymphoid leukemia L1210 [1] = settings: cited from earlier work; for antitumor activity, prior testing: L1210 system, prior/literature
[2] = Room temperature water solubility; format: physicochemical
Experimental: In the following examples, all melting points are uncorrected and were recorded on a Thomas-Hoover capillary melting point apparatus. Elemental analyses were performed by NIAMDD, NIH, Bethesda, Maryland. Fluoranil, ethyleneimine and 2l -methylethyleneimine were obtained commerically. […] New compounds were identified by nmr and ir spectroscopy. In the tetraamino derivatives, the methylene protons of the aziridine rings usually occurred as a singlet at δ2.0-2.2 in CDCl3 or DMSO-d6. This absorption appeared at δ2.40 (CDCl3) for compound 11. Carbonyl absorption frequencies (nujol mull) occurred in the range 1620-1640 cm^-1 for the tetraamino compounds. Satisfactory elemental analyses (+0.4% of calculated values) are indicated by elemental symbols in Table VII. Room temperature water solubilities were determined by the incremental addition (pipet) of water to a weighed amount of compound with shaking. The solubility values in Table VII must be considered as approximate.

lymphoid leukemia L1210 [3] = test: Intraperitoneal (IP) lymphoid leukemia L1210 transplanted mouse tumor test; format: in vivo, murine; settings: for OD (optimum dose) / ILS (percentage increase in life span) / animals alive per 6 test animals on day of termination / T - C (average weight change of test group minus control): Table VIII; for animals alive per 6 test animals on day of termination / survivors (number in parentheses) IP L1210: day 30; for ILS (%) IP L1210 / survivors (number in parentheses) IP L1210: Table XI; for ILS (%) IP L1210: outstanding activity; for survivors (number in parentheses) IP L1210: per 6 test animals; for T - C (average weight change of test group minus control): day 5
Excerpt: ^(a) Day 1-9 treatment schedule (9 injections)
^(b) Day 1,5,9 treatment schedule (3 injections)
^(c) Day 1 only treatment schedule (1 injection)
^(f) Percentage increase in life span of treated animals [(treated
survival .div. control survival) × 100%] - 100%

lymphoid leukemia L1210 [4] = test: Intracerebral (IC) lymphoid leukemia L1210 test; format: in vivo, murine; settings: for antitumor activity: IC L1210; for OD (optimum dose) / ILS (percentage increase in life span): Table X; for ILS (%) IC L1210: Table XI, outstanding activity
Excerpt: ^b Ic tumor implantation, ip QD1-9 treatment schedule.
The L1210, P388 and B16 test systems described in Table II utilize intraperitoneal (IP) tumor implantation and IP drug treatment while the Lewis lung system employs subcutaneous tumor implantation and IP treatment. All three CNS tumor models (Table III) use intracerebral (IC) tumor implantation and IP treatment.
Consistent with NCI antitumor test protocols, intraperitoneal (IP) administration of the drug was employed with all five tumor systems investigated. Tumor implantation was IP in the systems designated IP leukemia L1210 and P388 as well as B16 melanoma. Intracerebral (IC) tumor implantation was utilized in the IC L1210 and ependymoblastoma tumor systems.

B16 melanocarcinoma = test: Intraperitoneal B16 melanocarcinoma transplanted mouse tumor test; format: in vivo, murine; settings: for OD (optimum dose) / ILS (percentage increase in life span): Table IX; for OD (optimum dose): B16, QD1-9; for ILS (percentage increase in life span): B16, QD1-9, at OD
Excerpt: ^b Ip tumor implantation, ip QD1-9 treatment schedule.
The L1210, P388 and B16 test systems described in Table II utilize intraperitoneal (IP) tumor implantation and IP drug treatment while the Lewis lung system employs subcutaneous tumor implantation and IP treatment.
Aqueous saline solution (0.9%) was used as the drug vehicle. Normally, five doses were employed per experiment with the top dose chosen to produce toxicity. The lower doses were 50% of each preceeding dose.
Consistent with NCI antitumor test protocols, intraperitoneal (IP) administration of the drug was employed with all five tumor systems investigated. Tumor implantation was IP in the systems designated IP leukemia L1210 and P388 as well as B16 melanoma.

[5] = test system: P388 lymphocytic leukemia; test: Intraperitoneal (IP) lymphocytic leukemia P388 transplanted mouse tumor test; format: in vivo, murine; settings: Table IX; for OD (optimum dose): IP P388, QD1-9; for ILS (percentage increase in life span): IP P388, QD1-9, at OD
ependymoblastoma = test: Intracerebral (IC) ependymoblastoma (EM) brain tumor test; format: in vivo, murine; settings: for antitumor activity: IC ependymoblastoma (EM); for OD (optimum dose) / ILS (percentage increase in life span) / animals alive per 6 test animals on day of termination: Table X, IC ependymoblastoma; for OD (optimum dose): QD1-5; for ILS (percentage increase in life span) / animals alive per 6 test animals on day of termination: QD1-5, at OD; for animals alive per 6 test animals on day of termination / survivors (number in parentheses) EM: day 60; for survivors (number in parentheses) EM: Table XI, per 6 test animals
Excerpt: ^c Ic tumor implantation, ip QD1-5 treatment schedule.
^g Number of animals alive per six test animals on day of termination
of experiment (day 99 for expt 133 and day 60 for expt 136 and 144).
A third IC transplanted mouse tumor model, the ependymoblastoma system, was also studied. This system requires intracerebral implantation of a solid tumor fragment while the IC L1210 and IC P388 systems utilize IC inoculated ascites tumor fluid. All three use IP drug treatment however. […] Cures (survivors from the group of six mice on the last day of the experiment) are indicated. Experiments 136 and 144 were terminated on day 60. Since the number of cures was about the same, the differences in T/C values in these two experiments reflect differences in the life span of the two different sets of control animals. Experiment 133 was terminated on day 99 with a resulting higher activity value.
The hydrophilic dihydroxypropylamino compound (No. 39), which was curative in the IP L1210 and P388 leukemia systems, was active but gave a large spread in ILS values (53-186%). […] Again, its hydrophilic character may present transport problems in this IC tumor system.

[6] = Octanol/H2O partition coefficient (log P); format: physicochemical; settings: Table VII; octanol/H2O
Excerpt: ^(b) Octanol/H2 O values determined by C. Hansch and M. Yamakawa

[7] = water, Table VII, room temperature, approximate, read-out: Approx. H2O Sol.
[8] = IP L1210, Day 1 only (1 injection)
[9] = IP L1210, Q4D(1,5,9) (3 injections)

## CC(=O)NC1=C(Cl)C(=O)C(NC(C)=O)=C(Cl)C1=O [Compound 20, 2,5-dichloro-3,5-acetylamino-1,4-benzoquinone]
Lymphoid leukemia L1210 [1]
  antitumor activity, prior testing: inactive

## O=C1C(Cl)=C(Cl)C(=O)C(Cl)=C1Cl [chloranil, tetrachlorobenzoquinone]
Lymphoid leukemia L1210 [1]
  antitumor activity, prior testing: inactive

## CN(C)C1=C(N2CC2)C(=O)C(N(C)C)=C(N2CC2)C1=O [Compound 41, 2,5-Diaziridinyl-3,6-bis(dimethylamino)-1,4-benzoquinone]
[2]
  solubility: increases the solubility greatly
[2]; [7]
  solubility: 10000 µg/mL (≈ 36200 µM)
Lymphoid leukemia L1210 [3]; [8]
  OD (optimum dose): 1.5 mg/kg/injection
Lymphoid leukemia L1210 [3]; IP L1210, Day 1 only, at OD
  ILS (percentage increase in life span): 21% and 15%
Lymphoid leukemia L1210 [3]; [9]
  OD (optimum dose): 3.0 mg/kg/injection
Lymphoid leukemia L1210 [3]; IP L1210, Q4D(1,5,9), at OD
  ILS (percentage increase in life span): 120% and 73%
  animals alive per 6 test animals on day of termination: 1
Lymphoid leukemia L1210 [3]
  ILS (%) IP L1210: 120%
  survivors (number in parentheses) IP L1210: 1
Lymphoid leukemia L1210 [4]
  antitumor activity: most active; also recorded: significant activity
  ILS (%) IC L1210: 72%
Lymphoid leukemia L1210 [4]; IC L1210, Q4D(1,5,9)
  OD (optimum dose): 3.0 mg/kg/injection
Lymphoid leukemia L1210 [4]; IC L1210, Q4D(1,5,9), at OD
  ILS (percentage increase in life span): 72% and 56%
B16 melanocarcinoma
  OD (optimum dose): 0.2 mg/kg/injection
  ILS (percentage increase in life span): 16% and 12%
[5]
  OD (optimum dose): 1.0 mg/kg/injection and 0.5 mg/kg/injection
  ILS (percentage increase in life span): 74% and 37%
ependymoblastoma
  antitumor activity: among the most active materials
  OD (optimum dose): 1.0 mg/kg/injection and 0.5 mg/kg/injection
  ILS (percentage increase in life span): 215% and 190%
  animals alive per 6 test animals on day of termination: 5 and 4
  survivors (number in parentheses) EM: 5

## COC1=C(Br)C(=O)C(OC)=C(Br)C1=O [Compound 14, 2,5-dibromo-3,6-dimethoxy-1,4-benzoquinone]
Lymphoid leukemia L1210 [1]
  antitumor activity, prior testing: inactive

## CC(=O)NC1=C(N2CC2)C(=O)C(NC(C)=O)=C(N2CC2)C1=O [Compound 27]
Lymphoid leukemia L1210 [1]
  antitumor activity, prior testing: active; also recorded: intraperitoneal (IP) leukemia L1210 activity

## NC(=O)CNC1=C(N2CC2)C(=O)C(NCC(N)=O)=C(N2CC2)C1=O [Compound 40]
[2]; [7]
  solubility: 500 µg/mL (≈ 1500 µM)
Lymphoid leukemia L1210 [3]; [8]
  OD (optimum dose): 10.0 mg/kg/injection
Lymphoid leukemia L1210 [3]; IP L1210, Day 1 only, at OD
  ILS (percentage increase in life span): 21% and 15%
Lymphoid leukemia L1210 [3]; [9]
  OD (optimum dose): 8.0 mg/kg/injection
Lymphoid leukemia L1210 [3]; IP L1210, QD1-9 (9 injections)
  OD (optimum dose): 10.0 mg/kg/injection
Lymphoid leukemia L1210 [3]; IP L1210, QD1-9, at OD
  ILS (percentage increase in life span): 92% and 91%
Lymphoid leukemia L1210 [4]; IC L1210, QD1-9, at OD
  ILS (percentage increase in life span): 16%
B16 melanocarcinoma
  ILS (percentage increase in life span): 37% and 22%
[5]
  OD (optimum dose): 2.0 mg/kg/injection
  ILS (percentage increase in life span): 85% and 71%
ependymoblastoma
  OD (optimum dose): 2.0 mg/kg/injection and 1.0 mg/kg/injection
  ILS (percentage increase in life span): 64% and 50%

## CNC1=C(N2CC2)C(=O)C(NC)=C(N2CC2)C1=O [Compound 34]
[2]; [7]
  solubility: < 100 µg/mL
Lymphoid leukemia L1210 [3]; [8]
  OD (optimum dose): 0.7 mg/kg/injection
Lymphoid leukemia L1210 [3]; [9]
  OD (optimum dose): 0.8 mg/kg/injection and 0.4 mg/kg/injection
Lymphoid leukemia L1210 [3]; IP L1210, QD1-9 (9 injections)
  OD (optimum dose): 0.2 mg/kg/injection
Lymphoid leukemia L1210 [3]; IP L1210, QD1-9, at OD
  animals alive per 6 test animals on day of termination: 1
Lymphoid leukemia L1210 [4]
  antitumor activity: most active; also recorded: significant activity
  ILS (%) IC L1210: 68%
Lymphoid leukemia L1210 [4]; IC L1210, QD1-9
  OD (optimum dose): 0.4 mg/kg/injection and 0.2 mg/kg/injection
Lymphoid leukemia L1210 [4]; IC L1210, QD1-9, at OD
  ILS (percentage increase in life span): 68% and 60%
B16 melanocarcinoma; B16 melanoma
  antitumor activity: approached minimal reproducible activity
B16 melanocarcinoma
  ILS (percentage increase in life span): 39% and 29%
[5]
  OD (optimum dose): 0.2 mg/kg/injection and 0.1 mg/kg/injection
  ILS (percentage increase in life span): 95% and 69%
ependymoblastoma
  antitumor activity: among the most active materials; also recorded: highly active
  OD (optimum dose): 0.2 mg/kg/injection and 0.4 mg/kg/injection
  ILS (percentage increase in life span): 219% and 218%
  animals alive per 6 test animals on day of termination: 5 and 4
  survivors (number in parentheses) EM: 5

## COC1=C(N2CC2)C(=O)C(OC)=C(N2CC2)C1=O [Compound 28]
Lymphoid leukemia L1210 [1]
  antitumor activity, prior testing: intraperitoneal (IP) leukemia L1210 activity

## O=C1C(N2CC2)=C(N2CC2)C(=O)C(N2CC2)=C1N1CC1 [tetraaziridinyl derivative]
Lymphoid leukemia L1210 [1]; L1210 leukemia system, earlier evaluation
  ILS: 39%

## O=C1C(Cl)=C(N2CC2)C(=O)C(Cl)=C1N1CC1 [Compound 4, 2,5-dichloro-3,6-diaziridinyl-1,4-benzoquinone]
Lymphoid leukemia L1210 [1]
  antitumor activity, prior testing: inactive

## CCNC1=C(N2CC2)C(=O)C(NCC)=C(N2CC2)C1=O [Compound 35, 2,5-Diaziridinyl-3,6-bis(ethylamino)-1,4-benzoquinone]
[2]; [7]
  solubility: 500 µg/mL (≈ 1810 µM)
Lymphoid leukemia L1210 [3]; IP L1210, tetraaminobenzoquinone series (Table VIII)
  antitumor activity: activity appears to peak
Lymphoid leukemia L1210 [3]; [8]
  OD (optimum dose): 1.5 mg/kg/injection
Lymphoid leukemia L1210 [3]; IP L1210, Day 1 only, at OD
  ILS (percentage increase in life span): 68% and 54%
Lymphoid leukemia L1210 [3]; [9]
  OD (optimum dose): 3.0 mg/kg/injection and 1.5 mg/kg/injection
Lymphoid leukemia L1210 [3]; IP L1210, Q4D(1,5,9), at OD
  ILS (percentage increase in life span): 75% and 57%
Lymphoid leukemia L1210 [3]; IP L1210, QD1-9 (9 injections)
  OD (optimum dose): 1.5 mg/kg/injection
Lymphoid leukemia L1210 [3]; IP L1210, QD1-9, at OD
  ILS (percentage increase in life span): 112% and 91%
  T - C (average weight change of test group minus control): -3.3 grams
  animals alive per 6 test animals on day of termination: 2 and 1
Lymphoid leukemia L1210 [3]
  ILS (%) IP L1210: 112%
  survivors (number in parentheses) IP L1210: 2
Lymphoid leukemia L1210 [4]; IC L1210, QD1-9
  OD (optimum dose): 3.0 mg/kg/injection
Lymphoid leukemia L1210 [4]; IC L1210, QD1-9, at OD
  ILS (percentage increase in life span): 44% and 40%
B16 melanocarcinoma
  OD (optimum dose): 0.4 mg/kg/injection and 0.7 mg/kg/injection
  ILS (percentage increase in life span): 26% and 24%
[5]
  ILS (percentage increase in life span): 160% and 103%
ependymoblastoma
  antitumor activity: most active
  OD (optimum dose): 1.5 mg/kg/injection
  ILS (percentage increase in life span): 218% and 187%
  animals alive per 6 test animals on day of termination: 2
  survivors (number in parentheses) EM: 2

## O=C1C(N2CCOCC2)=C(N2CC2)C(=O)C(N2CCOCC2)=C1N1CC1 [Compound 46, 2,5-Diaziridinyl-3,6-dimorpholino-1,4-benzoquinone]
[2]; [7]
  solubility: < 100 µg/mL
Lymphoid leukemia L1210 [3]; [9]
  OD (optimum dose): 6.0 mg/kg/injection
Lymphoid leukemia L1210 [3]; IP L1210, Q4D(1,5,9), at OD
  T - C (average weight change of test group minus control): -2.6 grams
B16 melanocarcinoma
  ILS (percentage increase in life span): 24% and 17%
[5]
  OD (optimum dose): 0.5 mg/kg/injection and 0.7 mg/kg/injection
  ILS (percentage increase in life span): 52% and 48%
ependymoblastoma
  ILS (percentage increase in life span): 134% and 82%
[6]
  log P: 0.52

## NC1=C(Cl)C(=O)C(N)=C(Cl)C1=O [Compound 19]
Lymphoid leukemia L1210 [1]
  antitumor activity, prior testing: inactive
